Laboratory results taken from US9950048B2, “Immunogenic epitopes for immunotherapy” (immatics biotechnologies GmbH, priority 2007, dated 2018).
Ends that are not written are not given here.

Experiments:
[1] = system: CD8+ T cells of healthy HLA-A*02+ donors; assay: In vitro priming of CD8+ T cells with pMHC/anti-CD28 coated beads (high density), tetramer analysis; type: cell-based, human; conditions: for Immunogenicity detected: at least one well with ≥1% specific tetramer+ among CD8+ T-cells and ≥10× median of negative controls; for Positive donors/donors tested / Positive donors/donors tested (%) / Positive wells/wells tested / Positive wells/wells tested (%): high density beads
Description: To perform in vitro stimulations by artificial antigen presenting cells (aAPC) loaded with peptide-MHC complex (pMHC) and anti-CD28 antibody, first PBMCs (peripheral blood mononuclear cells) were isolated from fresh HLA-A*02+ buffy coats by using standard density gradient separation medium (PAA, Cölbe, Germany). Buffy coats were either obtained from the Blood Bank Tübingen or from the Katharinenhospital Stuttgart. Isolated PBMCs were incubated overnight in T-cell medium (TCM) for human in vitro priming consisting of RPMI-Glutamax (Invitrogen, Karlsruhe, Germany) supplemented with 10% heat inactivated human AB serum (PAA, Cölbe, Germany), 100 U/ml Penicillin/100 μg/ml Streptomycin (Cambrex, Verviers, Belgium), 1 mM sodium pyruvate (CC Pro, Neustadt, Germany) and 20 μg/ml Gentamycin (Cambrex). CD8+ lymphocytes were isolated using the CD8+ MACS positive selection kit (Miltenyi, Bergisch Gladbach, Germany) according to the manufacturer's instructions. Obtained CD8+ T-cells were incubated until use in TCM supplemented with 2.5 ng/ml IL-7 (PromoCell, Heidelberg, Germany) and 10 U/ml IL-2 (Chiron, Munich, Gemany). Generation of pMHC/anti-CD28 coated beads, T-cell stimulations and readout was performed as described before (Walter, S, et al., 2003, J. Immunol., 171, 4974-4978) with minor modifications. Briefly, biotinylated recombinant HLA-A*0201 molecules lacking the transmembrane domain and being biotinylated at the carboxy terminus of the heavy chain were produced following a method described by (Altman, J D, et al., 1996, Science, 274, 94-96). The purified costimulatory mouse IgG2a anti human CD28 Ab 9.3 (Jung, G, Ledbetter, J A, and Muller-Eberhard, H J; 1987, Induction of cytotoxicity in resting human T lymphocytes bound to tumor cells by antibody heteroconjugates, Proc Natl Acad Sci USA, 84, 4611-4615) was chemically biotinylated using Sulfo-N-hydroxysuccinimidobiotin as recommended by the manufacturer (Perbio, Bonn, Germany).
800,000 beads/200 μl were coated in 96-well plates in the presence of 600 ng biotin anti-CD28 plus 200 ng relevant biotin-pMHC (high density beads) or 2 ng relevant plus 200 ng irrelevant (pMHC library) MHC (low density beads). Stimulations were initiated in 96-well plates by conincubating 1×10^6 CD8+ T cells with 2×10^5 washed coated beads in 200 μl TCM supplemented with 5 ng/ml IL-12 (PromoCell) for 3-4 days at 37° C. Half of the medium was then exchanged by fresh TCM supplemented with 80 U/ml IL-2 and incubation was continued for 3-4 days at 37° C. This stimulation cycle was performed for a total of three times. Finally, tetrameric analyses were performed with fluorescent MHC tetramers (produced as described by (Altman, J D, et al., 1996, Science, 274, 94-96)) plus antibody CD8-FITC clone SK1 (BD, Heidelberg, Germany) on a four-color FACSCalibur (BD). Peptide specific cells were calculated as percentage of total CD8+ T cells. Evaluation of tetrameric analysis was performed using the software FCS Express (De Novo Software). In vitro priming of specific tetramer+CD8+ lymphocytes was detected by appropriate gating and by comparison to negative control stimulations.
Peptides of the present invention were tested together with peptides of known in vivo immunogenicity for comparison. The CEA-005 peptide that was optimised for in vitro T-cell induction (Fong, L, et al., 2001, J. Immunol., 166, 4254-4259) served as control.
Results of in vitro immunogenicity experiments conducted by immatics are summarised here. Results shown have been obtained by stimulation of CD8+ cells with high density beads. As different human serum lots may highly affect the immunogenicity results, only assays in which one and the same serum lot was used, were evaluated together.

[2] = Particle size/shape measurement and analytical HPLC of reconstituted IMA910 suspension; type: physicochemical; conditions: sodium hydrogen carbonate (4.2%)
Description: Particle size distribution and particle shape measurement of the particles obtained after reconstitution have been performed by capturing direct images of each individual particle in the range of 0.25 to 100 μm followed by image analysis.
Furthermore, analytical HPLC was performed for a closer characterization of the obtained suspension.
IMA910 is dissolved in 700 μL sodium hydrogen carbonate (4.2%).

With ILAPVILYI [NOX-001] the Immunogenicity detected [1] was “yes”, the Positive donors/donors tested [1] was 3/5 and the “Positive donors/donors tested (%)” value [1] was “(60%)”. The Positive wells/wells tested [1] was 9/60, the “Positive wells/wells tested (%)” value [1] was “(15%)” and the “solubility in the solution used for reconstitution of IMA910” value [2] was “almost insoluble”.

With ALFVRLLALA [TGFBI-001] the Immunogenicity detected [1] was “yes”, the Positive donors/donors tested [1] was 3/4 and the “Positive donors/donors tested (%)” value [1] was “(75%)”. For the same sequence, the Positive wells/wells tested [1] was 4/22, the “Positive wells/wells tested (%)” value [1] was “(18%)” and the “solubility in the solution used for reconstitution of IMA910” value [2] was “almost insoluble”.
